Read-outs that look alike come from different tables or passages of the source.
Assays:
RORγt [1] = target: T1, RORγt (Homo sapiens, UniProt P51449); assay: Jurkat reporter test (human IL-17 ROR response element luciferase, RORγt vector); type: cell-based; settings: read-out: Luminescence level inhibitory rate at test compound 3 μM (%)
T1 sequence (P51449 1-497 isoform P51449-2): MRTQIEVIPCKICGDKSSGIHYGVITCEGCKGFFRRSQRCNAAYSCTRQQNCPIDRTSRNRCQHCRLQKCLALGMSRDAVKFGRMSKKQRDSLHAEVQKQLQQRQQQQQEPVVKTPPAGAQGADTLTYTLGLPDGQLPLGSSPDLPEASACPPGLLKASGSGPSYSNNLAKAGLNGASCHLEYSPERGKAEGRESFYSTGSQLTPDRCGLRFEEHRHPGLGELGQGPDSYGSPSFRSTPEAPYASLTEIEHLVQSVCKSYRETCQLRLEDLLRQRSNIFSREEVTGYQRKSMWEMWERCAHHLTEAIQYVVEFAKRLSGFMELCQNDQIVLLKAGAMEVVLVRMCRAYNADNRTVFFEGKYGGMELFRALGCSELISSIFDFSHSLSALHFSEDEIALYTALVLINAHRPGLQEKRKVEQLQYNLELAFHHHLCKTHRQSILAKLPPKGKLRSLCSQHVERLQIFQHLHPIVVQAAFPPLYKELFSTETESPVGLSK
Outline: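 Luminescence (Bright-Glo, 10 min, RT) was measured after overnight compound treatment of electroporated Jurkat cells (1350 V, 10 ms interval, 3 pulses). The reaction medium was RPMI with 10% lipid-reduced FCS, 10 mM HEPES (pH 7.5) and 5 μM lovastatin.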

RORγt [2] = target: T1, RORγt; assay: RORγt binding test using fluorescent-labeled synthetic ligand (TR-FRET); settings: read-out: Binding inhibitory rate of fluorescent-labeled synthetic ligand to RORγt at test compound 1 μM (%)
Method: RORγt Binding Test Using Fluorescent-labeled Synthetic Ligand
The binding activity of the test compound to RORγt was measured by a time resolved fluorescence resonance energy transfer method (TR-FRET) utilizing histidine-tagged RORγt, fluorescent-labeled synthetic ligand, and terbium-labeled anti-histidine tag antibody (Invitrogen). First, a test compound diluted with an assay buffer (20 mM Tris-HCl (pH 7.5), 100 mM NaCl, 1 mM DTT, 0.1% BSA) was added to a 384 well plate by 3 μL. Then, RORγt diluted with an assay buffer to 240 nM was added by 3 μL, after which fluorescent-labeled synthetic ligand diluted with the assay buffer to 12 μM was added by 3 μL, and the mixture was stood at room temperature for 20 min. Thereafter, a terbium-labeled anti-histidine tag antibody diluted with the assay buffer to 8 nM was added by 3 μL. The mixture was stood at room temperature for 20 min, and fluorescence intensity (excitation wavelength 320 nm, fluorescence wavelength 520 nm, delay time 100 microseconds) was measured by Envision (PerkinElmer).

RORγt [3] = target: T1, RORγt; assay: RORγt binding test using fluorescent-labeled cholesterol (TR-FRET); settings: read-out: Binding inhibitory rate of fluorescent-labeled cholesterol to RORγt at test compound 1 μM (%)
Outline: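 After 20 min at room temperature with His-tagged RORγt and BODIPY-cholesterol in pH 7.5 Tris buffer (NaCl, DTT, BSA), compound wells got terbium anti-His antibody for another 20 min. Time-resolved FRET was read with excitation 320 nm, emission 520 nm and a 100 µs delay.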

RORγt [4] = target: T1, RORγt; assay: Cofactor recruitment test (Alpha Screen, biotinylated SRC-1 peptide); type: biochemical; settings: read-out: Signal value inhibitory rate at test compound 1 μM (%)
Method: Cofactor Recruitment Test
Cofactor recruitment test was performed by Alpha Screen (Histidine Detection Kit, PerkinElmer) method. First, a test compound was diluted with an assay buffer (50 mM Tris-HCl (pH 7.5), 50 mM KCl, 1 mM DTT, 0.1% BSA) and added to a 384 well plate by 5 μL. […] The mixture was stood in a dark place for 1 hr, and the signal value was measured by Envision (PerkinElmer).

[5] = test compound 3 μM, Jurkat cells

SMILES	inhibition at 3 µM (RORγt [1]; [5]) [%]	inhibition at 1 µM (RORγt [2]) [%]	inhibition at 1 µM (RORγt [3]) [%]	inhibition at 1 µM (RORγt [4]) [%]	inhibition at 3 µM (RORγt [1]; Jurkat) [%]
COCC(C)(C)c1c(F)cc(NC(=O)[C@H]2c3ccc(OC)cc3CCN2C(=O)c2cc(O)no2)cc1F [Example 97, (1R)-N-(3,5-difluoro-4-(1-methoxy-2-methylpropan-2-yl)phenyl)-2-((3-hydroxy-1,2-oxazol-5-yl)carbonyl)-6-methoxy-1,2,3,4-tetrahydroisoquinoline-1-carboxamide]	102	101	102	96	
COCc1ccc2c(n1)CCN(C(=O)c1cc(O)no1)[C@H]2C(=O)Nc1cc(F)c([Si](C)(C)C)c(F)c1 [Example 136, (5R)-N-(3,5-difluoro-4-(trimethylsilyl)phenyl)-6-((3-hydroxy-1,2-oxazol-5-yl)carbonyl)-2-(methoxymethyl)-5,6,7,8-tetrahydro-1,6-naphthyridine-5-carboxamide]		102	100	97	103
COc1ccc2c(c1)CCN(C(=O)[C@H]1CNC(=O)C1)[C@H]2C(=O)Nc1ccc(C(C)(C)C)c(F)c1 [Example 26, (1R)-N-(4-tert-butyl-3-fluorophenyl)-6-methoxy-2-(((3R)-5-oxopyrrolidin-3-yl)carbonyl)-1,2,3,4-tetrahydroisoquinoline-1-carboxamide]	102	101	97.7	81.5	
CCOc1ccc2c(c1)CCN(C(=O)c1cc(O)no1)[C@H]2C(=O)Nc1cc(F)c(C(C)(C)COCC(F)F)c(F)c1 [Example 154, (1R)-N-(4-(1-(2,2-difluoroethoxy)-2-methylpropan-2-yl)-3,5-difluorophenyl)-6-ethoxy-2-((3-hydroxy-1,2-oxazol-5-yl)carbonyl)-1,2,3,4-tetrahydroisoquinoline-1-carboxamide]	98	102	101	85	
COc1ccc2c(c1)CCN(C(=O)Cc1cc(O)no1)[C@H]2C(=O)Nc1cc(F)c(C(C)(C)COCC2CC2)c(F)c1 [Example 157, (1R)-N-(4-(1-(cyclopropylmethoxy)-2-methylpropan-2-yl)-3,5-difluorophenyl)-2-((3-hydroxy-1,2-oxazol-5-yl)acetyl)-6-methoxy-1,2,3,4-tetrahydroisoquinoline-1-carboxamide]	94	102	99	74	
COCc1ccc2c(c1)CCN(C(=O)Cc1cc(O)no1)[C@H]2C(=O)Nc1cc(F)c2c(c1)CCC2(C)C [Example 169, (1R)-N-(7-fluoro-1,1-dimethyl-2,3-dihydro-1H-inden-5-yl)-2-((3-hydroxy-1,2-oxazol-5-yl)acetyl)-6-(methoxymethyl)-1,2,3,4-tetrahydroisoquinoline-1-carboxamide]	102	102	102	93	
CCOc1ccc2c(n1)CCN(C(=O)Cc1cc(O)no1)[C@H]2C(=O)Nc1cc(F)c2c(c1)CCC2(C)C [Example 147, (5R)-2-ethoxy-N-(7-fluoro-1,1-dimethyl-2,3-dihydro-1H-inden-5-yl)-6-((3-hydroxy-1,2-oxazol-5-yl)acetyl)-5,6,7,8-tetrahydro-1,6-naphthyridine-5-carboxamide]	101	101	101	89	
COc1ccc2c(c1)CCN(C(=O)CC#N)[C@H]2C(=O)Nc1cc(F)c(C(C)(C)C(=O)N2CCCC2)c(F)c1 [Example 103, (1R)-2-(cyanoacetyl)-N-(3,5-difluoro-4-(2-methyl-1-oxo-1-(pyrrolidin-1-yl)propan-2-yl)phenyl)-6-methoxy-1,2,3,4-tetrahydroisoquinoline-1-carboxamide]	102	101	104	101	
COCc1ccc2c(c1)CCN(C(=O)c1cc(O)no1)[C@H]2C(=O)Nc1ccc([Si](C)(C)C)c(F)c1 [Example 107, (1R)-N-(3-fluoro-4-(trimethylsilyl)phenyl)-2-((3-hydroxy-1,2-oxazol-5-yl)carbonyl)-6-(methoxymethyl)-1,2,3,4-tetrahydroisoquinoline-1-carboxamide]		102	103	100	102
COc1ccc2c(c1)CCN(C(=O)c1cc(O)no1)[C@H]2C(=O)Nc1ccc([Si](C)(C)C)c(F)c1 [Example 7, (1R)-N-(3-fluoro-4-(trimethylsilyl)phenyl)-2-((3-hydroxy-1,2-oxazol-5-yl)carbonyl)-6-methoxy-1,2,3,4-tetrahydroisoquinoline-1-carboxamide]		101	102	92.8	101
COc1ccc2c(c1)CCN(C(=O)Cc1cc(O)no1)[C@H]2C(=O)Nc1ccc(C(C)(C)C)c(C#N)c1 [Example 65, (1R)-N-(4-tert-butyl-3-cyanophenyl)-2-((3-hydroxy-1,2-oxazol-5-yl)acetyl)-6-methoxy-1,2,3,4-tetrahydroisoquinoline-1-carboxamide]	100	101	102	98	
CCOc1ccc2c(c1)CCN(C(=O)Cc1cc(O)no1)[C@H]2C(=O)Nc1cc(F)c(C(C)(C)COCCOC)c(F)c1 [Example 143, (1R)-N-(3,5-difluoro-4-(1-(2-methoxyethoxy)-2-methylpropan-2-yl)phenyl)-6-ethoxy-2-((3-hydroxy-1,2-oxazol-5-yl)acetyl)-1,2,3,4-tetrahydroisoquinoline-1-carboxamide]	83	101	101	56	
COCC(C)(C)c1ccc(NC(=O)[C@H]2c3ccc(OC)cc3CCN2C(=O)c2cc(O)no2)cc1F [Example 69, (1R)-N-(3-fluoro-4-(1-methoxy-2-methylpropan-2-yl)phenyl)-2-((3-hydroxy-1,2-oxazol-5-yl)carbonyl)-6-methoxy-1,2,3,4-tetrahydroisoquinoline-1-carboxamide]	100	101	102	83	
COCC(C)(C)c1c(F)cc(NC(=O)[C@H]2c3ccc(OC)cc3CCN2C(=O)Cc2cc(O)no2)cc1F [Example 98, (1R)-N-(3,5-difluoro-4-(1-methoxy-2-methylpropan-2-yl)phenyl)-2-((3-hydroxy-1,2-oxazol-5-yl)acetyl)-6-methoxy-1,2,3,4-tetrahydroisoquinoline-1-carboxamide]	102	102	99	96	
CC[Si](C)(C)c1c(F)cc(NC(=O)[C@H]2c3ccc(OC)cc3CCN2C(=O)CCCC(=O)O)cc1F [Example 86, 5-((1R)-1-((4-(ethyl(dimethyl)silyl)-3,5-difluorophenyl)carbamoyl)-6-methoxy-3,4-dihydroisoquinolin-2(1H)-yl)-5-oxopentanoic acid]		102	103	98	101
COc1ccc2c(c1)CCN(C(=O)Cc1cc(O)no1)[C@H]2C(=O)Nc1cc(F)c(C(C)(C)C)c(F)c1 [Example 43, (1R)-N-(4-tert-butyl-3,5-difluorophenyl)-2-((3-hydroxy-1,2-oxazol-5-yl)acetyl)-6-methoxy-1,2,3,4-tetrahydroisoquinoline-1-carboxamide]	101	102	102	88.3	

From US10053468B2, “Heterocyclic compound” (TAKEDA PHARMACEUTICAL COMPANY LIMITED, priority 2013, dated 2018)
